Entries after “also recorded” stand apart in the source; their conditions may differ.
Tests used:
[1] = tested on: Nluc-HALOTAG labeled with NANOBRET 618 ligand; test: Inhibition of extracellular BRET; type: cell-based; settings: HEK293 Nluc-HDAC6; 10 ng/mL extracellular Nluc-HALOTAG/NANOBRET 618; 2 hrs
Protocol: HEK293 were transiently transfected with an Nluc-HDAC6 fusion protein to orient Nluc-HDAC6 inside the cell. 24 hrs post-transfection, cells were treated 10 ng/mL purified Nluc-HALOTAG labeled with NANOBRET 618 ligand to simulate spurious extracellular BRET. Cells were then exposed to a compound response curve of the thienopyrrole compounds, JRW-0013, JRW-0051, JRW-0147, and JRW-0187, for 2 hrs. 10 μM furimazine was then added, and BRET ratio 610/450 nm was measured.

[2] = tested on: Beta-2 Adrenergic Receptor-Nluc (B2AR-Nluc) fusion protein; test: Cell permeability, B2AR-Nluc in HEK293 or HeLa cells -/+ digitonin; type: cell-based
Protocol: HEK293 or HeLa cells were transiently transfected with Beta-2 Adrenergic Receptor-Nluc (B2AR-Nluc) fusion protein to anchor and orient Nluc cytosolically. 24 hrs post-transfection, cells were treated with −/+50 μg/mL digitonin to emulate a live and lytic scenario, respectively. Then, intact cells and permeabilized cells were exposed to a compound response curve of thienopyrrole compound up to 2 hrs. 10 μM furimazine (Promega Corp.) was added, and luminescence was measured. If a thienopyrrole compound (inhibitor) was permeable, the dose-response curves for both live and permeabilized cells overlapped. However, if a thienopyrrole compound was impermeable, the EC50 was right-shifted in the live cells relative to the permeabilized cells.

[3] = biological target: T1, purified Nluc (extracellular); Nluc-HALOTAG fusion protein (intracellular) (Oplophorus gracilirostris, UniProt Q9GV45, A31E/A60N/A81I/F95D/I117V/K70R/L54V/L99Q/M102K/N193R/P142E/Q151K/Q38R/Q45L/V71I/Y165I); test: Inhibition of extracellular luciferase activity and enhancement of intracellular BRET; type: cell-based; settings: HEK293 Nluc-HALOTAG + NANOBRET 618; 10 ng/mL extracellular purified Nluc; 2 hrs
T1 construct: expressed in transfected cells; host or cells: HEK293 (Nluc-HaloTag); purified Nluc added from outside
T1 sequence (Q9GV45 28-196 with tags or gaps with the stated changes limits assumed): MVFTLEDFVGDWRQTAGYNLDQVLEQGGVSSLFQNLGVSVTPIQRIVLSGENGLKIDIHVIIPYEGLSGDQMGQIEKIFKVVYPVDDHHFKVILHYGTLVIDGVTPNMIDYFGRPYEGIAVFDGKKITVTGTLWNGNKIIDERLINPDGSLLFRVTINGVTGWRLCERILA
Protocol: HEK293 were transiently transfected with Nluc-HALOTAG fusion protein to orient Nluc-HALOTAG inside the cell. 24 hrs post-transfection, cells were labeled with NANOBRET 618 ligand to simulate specific intracellular BRET. Cells were then treated 10 ng/mL purified Nluc to simulate spurious extracellular luminescence. Cells were exposed to a compound response curve of the thienopyrrole compounds, JRW-0013, JRW-0051, JRW-0147, and JRW-0187, for 2 hrs. 10 μM furimazine was added, and the BRET ratio 610/450 nm was measured.

[4] = tested on: firefly luciferase, e.g., ULTRAGLO® luciferase; test: Specificity of inhibition: firefly luciferase activity; type: biochemical; settings: 1 μM luciferin in Luciferase Detection Reagent; RT 2 hrs
Protocol: The following example describes the specificity of disclosed thienopyrrole compounds, JRW-0004, JRW-0013, JRW-0006, JRW-0042, JRW-0138, and JRW-0147, to inhibit Nluc luciferase activity versus firefly luciferase activity, e.g., ULTRAGLO® luciferase. In a Corning 3570 assay plate, a solution containing 1 μM luciferin in Luciferase Detection Reagent (Promega Corporation V865/859) was added to the assay wells. An equal volume of titrations the thienopyrrole compounds, JRW-0004, JRW-0013, JRW-0006, JRW-0042, JRW-0138, and JRW-0147 were then added to the wells. The reactions were incubated at RT for 2 hrs, and luminescence was measured on Tecan M1000 Pro plate reader.

[5] = biological target: T2, purified Nluc enzyme (Oplophorus gracilirostris, UniProt Q9GV45, A31E/A60N/A81I/F95D/I117V/K70R/L54V/L99Q/M102K/N193R/P142E/Q151K/Q38R/Q45L/V71I/Y165I); type: biochemical; settings: titration up to 100 μM final; RT 2 hrs; pro-substrate PBI-4442 + DTT
T2 construct: purchased Promega Corporation
T2 sequence (Q9GV45 28-196 with tags or gaps with the stated changes limits assumed): as above
Protocol: In a Corning 3570 assay plate, purified Nluc enzyme (Promega Corporation), 20 mM DTT, and an Nluc pro-substrate (PBI-4442, which is described in US Patent Publication No. 2013/0130289), which is converted to an Nluc substrate upon reduction with DTT, was added. Compound titrations of JRW-0004, JRW-0013, JRW-0006, JRW-0042, JRW-0138, and JRW-0147 were then made (1:2 serial dilution in PBS, 11 points plus no inhibitor control, starting at 200 μM; 100 μM final concentration in reaction). Compound titrations were added in equal volume to the wells of the assay plate. The reactions were incubated at RT for 2 hrs, and luminescence was measured on Tecan M1000 Pro plate reader. Half-maximal inhibitor (thienopyrrole compound) concentrations (IC50s) were determined using GraphPad Prism 6.03.

[6] = biological target: NANOLUC® enzyme (Oplophorus gracilirostris, UniProt Q9GV45, A31E/A60N/A81I/F95D/I117V/K70R/L54V/L99Q/M102K/N193R/P142E/Q151K/Q38R/Q45L/V71I/Y165I); test: Inhibitor IC50 determination (NANOLUC enzyme, furimazine); type: biochemical; settings: IC50 (uM), 0.4 ng/ml NANOLUC enzyme, final furimazine 10 uM (at Km)
NANOLUC® enzyme, sequence (Q9GV45 28-196 with tags or gaps with the stated changes limits assumed): as above

[7] = biological target: Nluc (Oplophorus gracilirostris, UniProt Q9GV45, A31E/A60N/A81I/F95D/I117V/K70R/L54V/L99Q/M102K/N193R/P142E/Q151K/Q38R/Q45L/V71I/Y165I); test: Multiplex RealTime-Glo / Caspase-Glo 3/7 in MCF7 cells; type: cell-based; set-up: purchased Promega Corporation
Nluc, sequence (Q9GV45 28-196 with tags or gaps with the stated changes limits assumed): as above
Protocol: (§1) A) In a Corning 3570 assay plate, MCF7 cells were plated at 1,000 cells/well in 20 μL of cell culture media (EMEM supplemented with 0.01 mg/mL human recombinant insulin and 10% fetal bovine serum) and incubated in overnight. 10 μL of 4× REALTIME-GLO™ MT Cell Viability reagents (Promega Corporation) in media or 10 μL media only was added to the cells. 10 μL of 40 μM staurosporine in media or 10 μL media only (control) was added to the cells. The cells were incubated, and caspase activation monitored at 5.5 hrs post-reagent addition. To monitor caspase activation, 40 μL CASPASE-GLO® 3/7 Assay Reagent (Promega Corporation), either on its own (Caspase) or with 200 μM of JRW-0004, JRW-0013, or JRW-0042, was added. Reactions were incubated at RT, and luminescence was measured at 1 hr 10 min post-reagent addition on Tecan M1000 Pro plate reader.
(§2) When comparing the signal generated from the CASPASE-GLO® reagent in media only versus the signal generated in media containing REALTIME-GLO™ reagent, the signal is higher in the multiplex reaction.

[8] = tested on: Nluc enzyme; test: as above; type: cell-based
Protocol: as §1, §2

[9] = tested on: B2AR-Nluc or Nluc-B2AR fusion protein; test: Cell permeability with bioluminescent imaging (HeLa, B2AR-Nluc / Nluc-B2AR); type: cell-based; settings: 30 μM compound, 10 μM furimazine
Protocol: HeLa cells were transiently transfected with Beta-2 Adrenergic Receptor-Nluc (B2AR-Nluc; C-Terminus Nluc) or Nluc-Beta-2 Adrenergic Receptor (Nluc-B2AR; N-terminus Nluc) fusion protein to anchor and orient Nluc intracellularly or extracellularly, respectively. 24 hrs post-transfection, cells were treated with −/+30 μM of a thienopyrrole compound, JRW-0147, JRW-0051, and JRW-0138. 10 μM furimazine was added, and luminescence was detected by imaging on the Olympus LV200.

[10] = tested on: HEK293 cells; test: Cell viability and toxicity (CellTiter-Glo); type: cell-based; settings: at concentrations greater than 2 μg/mL
Protocol: HEK293 cells were plated at 20 k cells/well and exposed to vehicle (DMSO), digitonin (positive control for cell death), or JRW-0344 for 10 min/30 min/120 min/240 min/or 18 hrs. CellTiter-Glo (Promega Corp.) was added, and luminescence measured.

[11] = 10 μM Stauro vs Control, 200 μM compound
[12] = CASPASE-GLO 3/7 reagent with 200 μM compound, 1 hr 10 min

Structure (SMILES)	BRET ratio 610/450 nm across compound dose-response curve (FIGS. 12B-12E) [1]	Cell permeability [2]	BRET ratio 610/450 nm across compound dose-response curve (FIGS. 13B-13E) [3]	Inhibition of firefly luciferase activity (FIG. 3) [4]	Inhibition of purified Nluc enzyme (FIG. 2) [5]	IC50 [6] [µM]	Permeability and inhibition of extracellular / intracellular Nluc by imaging (FIG. 14) [9]	other results
CCN(C(=O)Cn1c(C(=O)N[C@H]2CC[C@H](C(=O)N3CCC(C(=O)O)CC3)CC2)cc2sccc21)c1cccc(C)c1 [JRW-0187, 1-(trans-4-(4-(2-(ethyl(m-tolyl)amino)-2-oxoethyl)-4H-thieno[3,2-b]pyrrole-5-carboxamido)cyclohexane-1-carbonyl)piperidine-4-carboxylic acid]	BRET ratio decreased	cell-impermeable	intracellular BRET ratio was enhanced					
CCCCNC(=O)[C@H]1CC[C@H](NC(=O)c2cc3sccc3n2CC(=O)N(CC)c2cccc(C)c2)CC1 [JRW-0042, N-(trans-4-(butylcarbamoyl)cyclohexyl)-4-(2-(ethyl(m-tolyl)amino)-2-oxoethyl)-4H-thieno[3,2-b]pyrrole-5-carboxamide]				do not inhibit firefly luciferase activity; also recorded: did not inhibit the firefly luciferase activity	capable of inhibiting purified Nluc enzyme	0.31		Fold Cont, Media containing RealTime-Glo [7, 11]: 5.05; Avg (luminescence), Media containing RealTime-Glo, 10 μM Stauro [7, 12]: 53956; Avg (luminescence), Media containing RealTime-Glo, Control [7, 12]: 10679; Fold Cont, Media only [8, 11]: 5.81; Avg (luminescence), Media only, 10 μM Stauro [8, 12]: 62280; Avg (luminescence), Media only, Control [8, 12]: 10718
CCCCCCNC(=O)[C@H]1CC[C@H](NC(=O)c2cc3sccc3n2CC(=O)N(CC)c2cccc(C)c2)CC1 [JRW-0138, 4-(2-(ethyl(m-tolyl)amino)-2-oxoethyl)-N-(trans-4-(hexylcarbamoyl)cyclohexyl)-4H-thieno[3,2-b]pyrrole-5-carboxamide]		cell-permeable		do not inhibit firefly luciferase activity; also recorded: did not inhibit the firefly luciferase activity	capable of inhibiting purified Nluc enzyme	0.13	cell permeable and inhibited both intracellular and extracellular Nluc	
C[C@@H]1CC[C@@]2(OC1)O[C@H]1[C@@H](O)[C@H]3[C@@H]4CC[C@H]5C[C@@H](O[C@@H]6O[C@H](CO)[C@H](O[C@@H]7O[C@H](CO)[C@@H](O)[C@H](O[C@@H]8OC[C@@H](O)[C@H](O)[C@H]8O)[C@H]7O[C@@H]7O[C@H](CO)[C@H](O)[C@H](O[C@@H]8O[C@H](CO)[C@@H](O)[C@H](O)[C@H]8O)[C@H]7O)[C@H](O)[C@H]6O)[C@H](O)C[C@]5(C)[C@H]4CC[C@]3(C)[C@H]1[C@@H]2C [Digitonin, reference compound]								Cell death (FIG. 18B) [10]: almost complete death
CCN(C(=O)Cn1c(C(=O)N[C@H]2CC[C@H](C(=O)NCCCC(=O)O)CC2)cc2sccc21)c1cccc(C)c1 [JRW-0051, 4-(trans-4-(4-(2-(ethyl(m-tolyl)amino)-2-oxoethyl)-4H-thieno[3,2-b]pyrrole-5-carboxamido)cyclohexane-1-carboxamido)butanoic acid]	BRET ratio decreased	cell-impermeable	intracellular BRET ratio was enhanced			0.74	impermeable and inhibited extracellular Nluc and enhanced intracellular Nluc	
